Data from patent US8993527B2, “Methods, compositions, and formulations for preventing or reducing adverse effects in a patient” (Pericor Therapeutics, Inc., priority 2005, dated 2015).

What was measured:
[1] = test system: myocardial infarct; test: Myocardial infarct size in rats after coronary artery ligation; assay type: in vivo, rat; details: bolus plus osmotic mini-pump infusion, three weeks, vs saline
From the text: The animals were continuously exposed by infusion of either AICA riboside in saline or saline using osmotic mini-pumps well known to those in the art. After three weeks, the rats were sacrificed and infarct size quantitated by planimarizing stained sections of fixed hearts.

[2] = test system: patients undergoing CABG surgery; test: Phase 2 CABG trial: myocardial ischemia by Holter ECG and TEE; assay type: in vivo, human; details: for Isch min/h monitored: postbypass, listed as AICA riboside
Experimental: The evaluation of Holter tapes and echo videotapes was performed centrally by two independent blinded observers; if there was disagreement between the two, a third observer was used to “break the tie.” The same observers were used throughout the study. 5. Ischemic Events-TEE. Ischemic event data were evaluated during two time periods-pre-bypass and post-bypass, using the following analysis: a) The number of patients with ischemic events was compared across the groups using Fisher's exact test. This analysis also included pre-post changes and pre- and post-combined. b) For patients with events, analysis of the mean duration and severity of ischemia was done. […] For severity (an ordinary variable, 0-4 scale) and number of events, the nonparametric test was used. […] 6. Ischemic Events-ECG. The analysis of ischemic events indicated by ECG was done using the same methods as the echo events. The time periods analyzed were: (a) baseline (Holter start to infusion start), (b) pre-bypass (infusion start to bypass start), (c) post-bypass ([…] off to infusion end), and (d) post-treatment (infusion end to Holter end). For patients with events, the following variables were analyzed: mean duration, maximum ST change and area under the curve of significant ST segment deviation. Analysis of variance (ANOVA) was used. 3. Myocardial Ischemia. Myocardial ischemia was measured with continuous Holter ECG and TEE. […] ECG episodes of ischemia were defined as reversible S-T depression 1 mm or greater lasting 1 minute or longer. TEE data were recorded continuously during surgery at the level of the mid-papillary muscles of the left ventricle. The wall motion of each of the four segments was graded from 0-4 (normal to […] ischemia was defined by regional wall motion worsening at least 2 grades and lasting 1 minute or longer.

[3] = biological target: T1, NBTI-specific adenosine transport site (UniProt O54698); test: [3H]-NBTI binding assay; details: read-out: ED50 (50% displacement of bound [3H]-NBTI); 0.5 mg neuronal membrane protein, 0.5 nM [3H]-NBTI, 30 minutes
T1 sequence (O54698 1-457): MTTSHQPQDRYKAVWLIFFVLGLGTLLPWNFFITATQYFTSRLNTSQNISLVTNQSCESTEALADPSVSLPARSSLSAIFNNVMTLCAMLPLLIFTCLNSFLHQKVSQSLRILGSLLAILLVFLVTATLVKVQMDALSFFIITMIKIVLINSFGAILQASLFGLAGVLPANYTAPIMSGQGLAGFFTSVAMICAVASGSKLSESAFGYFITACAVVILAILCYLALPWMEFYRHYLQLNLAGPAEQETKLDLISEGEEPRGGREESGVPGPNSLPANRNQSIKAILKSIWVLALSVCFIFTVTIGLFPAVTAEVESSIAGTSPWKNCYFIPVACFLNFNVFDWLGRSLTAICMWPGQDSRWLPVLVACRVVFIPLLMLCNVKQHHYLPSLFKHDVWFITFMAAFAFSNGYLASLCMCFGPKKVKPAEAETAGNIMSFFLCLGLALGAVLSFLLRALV
Experimental: Increasing concentrations of the test compounds were incubated for 30 minutes with 0.5 mg neuronal membrane protein together with 0.5 nM [^3 H]-NBTI in a Tris buffer (pH 7.4) at room temperature. The assays were quenched and membranes collected by rapid filtration. Filters were then solubilized and radioactivity determined by scintillation counting.

[4] = biological target: T2, purified pig heart adenosine kinase (Sus scrofa, UniProt A0A5G2R0F5); test: Adenosine kinase activity; assay type: biochemical; details: 0.5 μM [U14C] adenosine, 1 mM ATP, 20 minutes at 37° C.
T2 construct: 0.1 μg of purified pig heart adenosine kinase; from tissue; host or cells: pig heart
T2 sequence (A0A5G2R0F5 1-362): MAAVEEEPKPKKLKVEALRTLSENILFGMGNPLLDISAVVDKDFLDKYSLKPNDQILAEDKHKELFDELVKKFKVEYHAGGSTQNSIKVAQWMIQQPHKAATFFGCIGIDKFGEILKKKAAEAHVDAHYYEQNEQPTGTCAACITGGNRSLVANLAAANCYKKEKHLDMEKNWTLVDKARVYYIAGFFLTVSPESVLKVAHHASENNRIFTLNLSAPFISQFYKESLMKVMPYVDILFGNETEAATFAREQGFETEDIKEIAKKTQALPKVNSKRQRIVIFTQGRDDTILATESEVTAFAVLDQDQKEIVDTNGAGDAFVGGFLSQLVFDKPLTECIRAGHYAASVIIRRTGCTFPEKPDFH
Experimental: Inhibition of enzyme activity was determined using a 0.1 ml assay mixture containing 50 mM Tris-maleate, pH 7.0, 0.1% (w/v) BSA, 1 mM ATP, 1 mM MgCl2, 0.5 μM [U^14 C] adenosine (500 mCi/mmol) and 0.1 μg of purified pig heart adenosine kinase. Different concentrations of test compound were incubated in the assay mixture for 20 minutes at 37° C. From each reaction mixture, 20 μl portions were removed and spotted on 2^2 pieces of Whatman DE81 filter paper. The papers were then washed to remove [^14 C] adenosine in 1 mM ammonium formate followed by deionized water and finally 95% ethanol. The papers were dried, and [^14C] AMP measured by scintillation counting. Activities were determined from the amount of [^14C] AMP formed.

[5] = biological target: T3, calf intestinal musosa adenosine deaminase (Bos taurus, UniProt P56658); test: Adenosine deaminase activity; assay type: biochemical; details: 80 μM adenosine, 10 minutes at 37° C.
T3 construct: 0.002 units of calf intestinal musosa adenosine deaminase; from tissue; host or cells: calf intestinal mucosa
T3 sequence (P56658 whole entry): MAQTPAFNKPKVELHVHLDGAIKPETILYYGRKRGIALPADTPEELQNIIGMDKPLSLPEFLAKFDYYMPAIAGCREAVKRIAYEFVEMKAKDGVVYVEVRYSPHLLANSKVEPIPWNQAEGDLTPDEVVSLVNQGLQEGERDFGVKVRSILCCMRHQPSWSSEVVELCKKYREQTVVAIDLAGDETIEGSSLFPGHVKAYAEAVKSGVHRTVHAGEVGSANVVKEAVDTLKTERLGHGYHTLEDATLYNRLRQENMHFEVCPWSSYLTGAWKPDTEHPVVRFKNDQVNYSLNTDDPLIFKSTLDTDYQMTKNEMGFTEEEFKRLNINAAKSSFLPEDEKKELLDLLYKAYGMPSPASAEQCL
Experimental: Different concentrations of the test compounds were incubated in the assay mixture for 10 minutes at 37° C. The reaction was monitored continuously for oxidation of NADH from the change in absorbance at 340 nm.

For NC(=O)c1ncn([C@@H]2O[C@H](CO)[C@@H](O)[C@H]2O)c1N [1 (1-110), 5-amino-1-β-D-ribofuranosyl-imidazole-4-carboxamide], the “reduction of infarct size” value [1] was 33%, the Isch min/h monitored ([2]; High Dose) was 27±20 min/h and the Isch min/h monitored ([2]; Low Dose) was 40±15 min/h. For the same compound, the “incidence of ECG ischemia, postbypass period” value ([2]; high dose) was 11%, the “incidence of ECG ischemia, prebypass period” value ([2]; high dose) was 3% and the “incidence of TEE ischemia, postbypass period” value ([2]; high dose) was 24%. The “incidence of TEE ischemia, prebypass period” value ([2]; high dose) was 6%, the “incidence of ECG ischemia, postbypass period” value ([2]; low dose) was 22% and the “incidence of ECG ischemia, prebypass period” value ([2]; low dose) was 3%. For the same compound, the “incidence of TEE ischemia, postbypass period” value ([2]; low dose) was 27%, the “incidence of TEE ischemia, prebypass period” value ([2]; low dose) was 15% and the EC50 [3] was over 1 mM. The IC50 [4] was over 5 mM and the IC50 [5] was over 5 mM.
